Data taken from paper PMC6470840 (International Journal of Molecular Sciences, 2019).
Entries after “also recorded” stand apart in the source; their conditions may differ.

Key:
[1] = Procedure: As a peroxidase mimetic, the enzymatic potency of the digestion products of DhHP-6 were assessed using the H2O2–Vitamin C (Vc) double-substrate method. Digestion products of DhHP-6 were diluted to 10 μM. Samples containing no enzyme were used as a control. The reaction system consisted of phosphate buffer solution (PBS) (50 mM, pH 7.4), H2O2 (1 mM), Vc ([…]), and 10 μM DhHP-6. All samples were assayed at 25 °C. The decrease in the absorbance at 290 nm was measured for 30 s by UV–Vis spectrophotometer (Shimadzu, Kyoto, Japan), and measurements were performed prior to the addition of the digestion products and set as 100% relative enzymatic activity.
T2DM rats = tested on: T2DM rats; parameters: method as in PMID 24946264; conditions: injected (intraperitoneal injection); cited from earlier work
From the text: DhHP-6 (Deuterohemin-βAla-His-Thr-Val-Glu-Lys) was designed based on the microperoxidase-11 (MP-11), generated through […]. […] When ...

T2DM mice [2] = test: T2DM mouse model: liver histology (H&E); format: in vivo, C57BL/6J mice; conditions: DhHP-6 60 mg/kg or metformin 250 mg/kg oral, four weeks
Procedure: (§1) At the end of the experiment, the liver and pancreas islets were immediately removed after the mice were sacrificed. The left lobe of the liver was stored at −80 °C and the right lobe of the liver was fixed in 4% paraformaldehyde (Solarbio & Technology Co., Ltd., Beijing, China). After dehydration in a gradient of ethanol concentrations, tissues were paraffin embedded and cut into 5 μm thick sections. Slices were stained with hematoxylin and eosin (H&E) dyes, and sections were mounted in neutral deparaffinized xylene medium for microscopic examination using an Olympus BX53 fluorescence microscope (Olympus, Tokyo, Japan).

T2DM mice [3] = test: T2DM mouse model: pancreas islet histology (H&E); format: in vivo, C57BL/6J mice; conditions: DhHP-6 60 mg/kg or metformin 250 mg/kg oral, four weeks
Procedure: as §1

[4] = simulated gastric fluid (SGF), pH 1.2, prepared in accordance with the US Pharmacopeia; conditions: 37 °C, up to 120 min
[5] = simulated intestinal fluid (SIF), pH 6.8 ± 0.1, prepared in accordance with the US Pharmacopeia; conditions: 37 °C, up to 120 min
human plasma = conditions: 37 °C, up to seven days
[6] = blood samples of rats after intravenous injection or intragastric administration; conditions: male Wistar rats, up to 12 h

Which “relative enzyme activity of the plasma degradation product” value [1] does the source give for Deuterohemin-βAla-His-Thr [DhHP-3] here?
Its value is “retained the relative enzyme activity of DhHP-6”.

For “deuterohemin-Ala-His-Lys [DhHP-3 (deuterohemin-Ala-His-Lys)]”, which “symptoms of T2DM rats” value (T2DM rats) is on record?
Its value is “improves the symptoms of T2DM rats”.

What does the source list for `CN(C)C(=N)N=C(N)N` [metformin, reference compound]?
liver histology, high dose / metformin (T2DM mice [2]): lower levels of steatosis were evident and the liver cells became more regular than T2DM mice; pancreas islet histology, high dose / metformin (T2DM mice [3]): the islets and vacuolar degeneration improved

What does the source list for Deuterohemin-βAla-His-Thr-Val-Glu-Lys?
fragment found [4]: DhHP-5 (Deuterohemin-βAla-His-Thr-Val-Glu), major; fragment found [5]: DhHP-5; also recorded: DhHP-2 (Deuterohemin-βAla-His); fragment found (human plasma): DhHP-3 (Deuterohemin-βAla-His-Thr), major; fragment found [6]: DhHP-3, major
